{
  "source": "patent US20240148835A1",
  "about": "“TREATING DISORDERS ASSOCIATED WITH DYRK1A DYSFUNCTION” (UNIVERSITY OF FLORIDA RESEARCH FOUNDATION, INCORPORATED, priority 2021, published 2024)",
  "system": "neonatal cHets",
  "assay": "Neonatal GSK3 inhibitor SB216763 treatment: cortex mass, isotropic fractionator cell number and density",
  "format": "in vivo, mouse",
  "method": "We utilized the previously mentioned neonatal paradigm to inject cHets daily with GSK3 inhibitor SB216763 or vehicle from P0 to P7 (FIG. 25A).\n(1-3)IGF-1 was acquired from VWR/Bachem (catalog #H-2468.1000) and dissolved in saline with 0.01% BSA fresh every day. Intraperitoneal injections of 10 mg kg′ (1-3)IGF-1 or vehicle were delivered daily at 8 a.m. starting on P14 and ending on P85. […] The S6K1 inhibitor PF-4708671 was acquired from Medkoo Biosciences (#406432) dissolved in 10% DMSO, 10% tween 80 and 80% water. (1-3)IGF-1 (10 mg kg′) and PF-4708671 (50 mg kg^−1) or vehicle were injected subcutaneously into pups from P0 to P7. Rapamycin was acquired from LC laboratories (R-5000) and dissolved in 4% ethanol, 5% tween-80, and 5% PEG400 in PBS. (1-3)IGF-1 (10 mg kg′) and Rapamycin (1 mg kg′) or vehicle were injected subcutaneously into pups from P0 to P7. SB216763 was acquired from TOCRIS (#1616) and dissolved in 5% DMSO and 0.9% saline in dH20. SB216763 (0.5 mg kg′) was injected subcutaneously into pups from P0 to P7.\nAdult animals were perfused with 4% PFA, and pups underwent rapid decapitation and dissection. Brains were fixed in 4% PFA for one week, and then the cortex was dissected out and dissociated in a 7 ml glass tissue homogenizer (Kontes Glass) in dissociation buffer (1% Triton X-100 in 40 mM sodium citrate). 1 ml of nuclei was removed and stained with 1:50 DAPI (Invitrogen, catalog #D3571) before being loaded onto a hemocytometer (Fisher Scientific, catalog #0267110). Per animal, 6 technical replicates of 10 μl nuclei were imaged and counted in the hemocytometer (0.1 μl nuclei counted per technical replicate). After calculating the total cell number per cortex, the number of cells was divided by mg of cortex to obtain density.",
  "key": {"[1]": {"conditions": "0.5 mg kg subcutaneous daily P0 to P7"}},
  "note": "Entries after “also recorded” stand apart in the source; their conditions may differ.",
  "data": [
    {"compound": "Cn1cc(C2=C(c3ccc(Cl)cc3Cl)C(=O)NC2=O)c2ccccc21", "note": "[SB216763]", "values": [
      {"measurement": "cellular density", "setting": "[1]", "result": "no effect on cellular density; also recorded: unaltered by any genotype or treatment"},
      {"measurement": "cortex mass of controls", "setting": "[1]", "result": "no effect; also recorded: unaltered by treatment"},
      {"measurement": "cortical cell number of cHets", "setting": "[1]", "result": "restored the decreased cellular number; also recorded: restored by SB216763 treatment"},
      {"measurement": "cortical cell number of controls", "setting": "[1]", "result": "no effect on SB216763-treated controls"},
      {"measurement": "cortex mass of cHets", "setting": "0.5 mg kg subcutaneous daily P0 to P7, vs vehicle-treated controls", "result": "normalized cortex mass; also recorded: restored by treatment with SB216763"}
    ]}
  ]
}
